pIC50: −log10 of the molar value.
Biological target: T1, Nav1.7 (or SCN9A) channel; HEK cells stably transfected with hSCN9A (Homo sapiens, UniProt Q15858)
T1 construct: expressed in transfected cells
Experiment: Nav1.7 block, PatchXpress 7000 automated whole-cell voltage clamp, estimated IC50 (EIC50)
Format: cell-based
Details: estimated IC50, PatchXpress platform

[1] = hSCN9A HEK cells, Examples 283-814
[2] = hSCN9A HEK cells held at V1/2 of inactivation
[3] = hSCN9A HEK cells, Examples 815-1040

T1 sequence (Q15858 whole entry): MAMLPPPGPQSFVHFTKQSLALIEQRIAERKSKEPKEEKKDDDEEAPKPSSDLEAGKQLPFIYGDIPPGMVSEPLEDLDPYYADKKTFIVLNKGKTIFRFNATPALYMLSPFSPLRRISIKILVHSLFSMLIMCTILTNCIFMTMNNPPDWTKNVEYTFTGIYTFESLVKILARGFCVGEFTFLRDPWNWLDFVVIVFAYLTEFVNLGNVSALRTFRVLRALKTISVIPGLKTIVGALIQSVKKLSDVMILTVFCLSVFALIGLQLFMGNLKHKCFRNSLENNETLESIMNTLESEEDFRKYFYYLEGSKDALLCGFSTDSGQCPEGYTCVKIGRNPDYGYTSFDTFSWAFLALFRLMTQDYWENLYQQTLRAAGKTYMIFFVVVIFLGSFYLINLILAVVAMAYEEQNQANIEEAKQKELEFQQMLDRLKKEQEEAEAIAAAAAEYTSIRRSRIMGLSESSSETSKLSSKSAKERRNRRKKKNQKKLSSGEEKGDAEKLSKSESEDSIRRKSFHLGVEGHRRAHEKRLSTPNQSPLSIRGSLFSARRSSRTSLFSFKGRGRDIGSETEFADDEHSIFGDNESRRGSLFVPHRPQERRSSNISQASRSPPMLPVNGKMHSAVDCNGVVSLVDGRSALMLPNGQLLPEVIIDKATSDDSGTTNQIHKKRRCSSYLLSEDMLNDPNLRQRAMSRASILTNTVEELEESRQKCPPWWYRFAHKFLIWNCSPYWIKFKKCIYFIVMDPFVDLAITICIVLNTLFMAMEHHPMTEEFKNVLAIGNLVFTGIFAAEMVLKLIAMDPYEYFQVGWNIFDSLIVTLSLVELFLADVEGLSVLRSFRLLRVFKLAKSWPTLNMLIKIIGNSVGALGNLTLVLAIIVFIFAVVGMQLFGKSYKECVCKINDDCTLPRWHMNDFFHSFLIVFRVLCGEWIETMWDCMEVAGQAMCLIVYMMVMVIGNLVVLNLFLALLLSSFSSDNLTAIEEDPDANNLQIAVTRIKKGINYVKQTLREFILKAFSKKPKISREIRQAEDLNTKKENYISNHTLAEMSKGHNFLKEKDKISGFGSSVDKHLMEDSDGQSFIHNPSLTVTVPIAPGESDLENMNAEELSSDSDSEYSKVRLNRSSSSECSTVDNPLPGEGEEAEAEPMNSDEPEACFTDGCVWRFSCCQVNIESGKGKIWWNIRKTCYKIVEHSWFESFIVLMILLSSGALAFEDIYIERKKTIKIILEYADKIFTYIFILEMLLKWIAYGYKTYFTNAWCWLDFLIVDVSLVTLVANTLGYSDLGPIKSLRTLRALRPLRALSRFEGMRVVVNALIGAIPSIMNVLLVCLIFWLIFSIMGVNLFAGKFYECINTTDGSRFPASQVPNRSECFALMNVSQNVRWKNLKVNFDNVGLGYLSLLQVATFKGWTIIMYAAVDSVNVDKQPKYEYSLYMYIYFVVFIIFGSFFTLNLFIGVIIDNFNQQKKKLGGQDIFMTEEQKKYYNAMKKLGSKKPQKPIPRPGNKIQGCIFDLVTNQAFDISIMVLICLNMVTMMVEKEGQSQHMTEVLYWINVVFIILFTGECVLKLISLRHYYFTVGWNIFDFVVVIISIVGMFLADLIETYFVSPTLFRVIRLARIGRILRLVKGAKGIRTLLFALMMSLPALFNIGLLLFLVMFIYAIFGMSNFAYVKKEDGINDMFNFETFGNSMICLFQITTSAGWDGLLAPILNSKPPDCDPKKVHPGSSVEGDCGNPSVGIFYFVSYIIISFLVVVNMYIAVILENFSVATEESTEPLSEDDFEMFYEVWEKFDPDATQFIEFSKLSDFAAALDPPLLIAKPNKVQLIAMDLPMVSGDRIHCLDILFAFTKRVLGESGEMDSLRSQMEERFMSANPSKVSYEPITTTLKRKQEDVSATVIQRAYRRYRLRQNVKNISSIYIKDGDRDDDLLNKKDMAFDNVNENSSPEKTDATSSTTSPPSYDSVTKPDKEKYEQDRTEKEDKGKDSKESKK

Structure (SMILES)	IC50 [1]	pIC50 [1]	also measured
O=S(=O)(Nc1cscn1)c1ccc(Oc2ccc(OC(F)(F)F)cc2-c2cn[nH]c2)c(F)c1 [Example 612, 3-fluoro-4-[2-(1H-pyrazol-4-yl)-4-(trifluoromethoxy)phenoxy]-N-1,3-thiazol-4-ylbenzenesulfonamide]		6.27	
COc1ccc(-c2ccccc2Oc2ccc(S(=O)(=O)Nc3ncns3)cc2C#N)cc1 [Example 51, 3-cyano-4-[(4′-methoxybiphenyl-2-yl)oxy]-N-1,2,4-thiadiazol-5-ylbenzenesulfonamide]			pIC50 [2]: 6.48
Cn1cc(-c2ccccc2)c(Oc2ccc(S(=O)(=O)Nc3nccs3)cc2F)n1 [Example 233, 3-fluoro-4-(1-methyl-4-phenyl-1H-pyrazol-3-yloxy)-N-(thiazol-2-yl)benzenesulfonamide]			pIC50 [2]: 5.46
Cc1cc(S(=O)(=O)Nc2cscn2)c(F)cc1Oc1ccc(F)cc1-c1ccnn1C [Example 626, 2-fluoro-4-[4-fluoro-2-(1-methyl-1H-pyrazol-5-yl)phenoxy]-5-methyl-N-1,3-thiazol-4-ylbenzenesulfonamide]		6.92	
Nc1n[nH]cc1-c1cc(Cl)ccc1Oc1ccc(S(=O)(=O)Nc2ccncn2)cc1Cl [Example 973, 4-[2-(3-amino-1H-pyrazol-4-yl)-4-chlorophenoxy]-3-chloro-N-pyrimidin-4-ylbenzenesulfonamide]			pIC50 [3]: 7.60
N#Cc1cc(S(=O)(=O)Nc2nccs2)ccc1Oc1ccc(Cl)cc1-c1ccccn1 [Example 164, 4-(4-chloro-2-pyridin-2-ylphenoxy)-3-cyano-N-1,3-thiazol-2-ylbenzenesulfonamide]			pIC50 [2]: 6.24
COCCn1nccc1-c1cc(Cl)ccc1Oc1cc(F)c(S(=O)(=O)Nc2nncs2)cc1Cl [Example 563, 5-chloro-4-{4-chloro-2-[1-(2-methoxyethyl)-1H-pyrazol-5-yl]phenoxy}-2-fluoro-N-1,3,4-thiadiazol-2-ylbenzenesulfonamide]		6.89	
O=S(=O)(Nc1nccs1)c1ccc(Oc2ccc(Cl)cc2-c2ccnn2Cc2ccccc2)c(F)c1 [Example 220, 4-(2-(1-benzyl-1H-pyrazol-5-yl)-4-chlorophenoxy)-3-fluoro-N-(thiazol-2-yl)benzenesulfonamide]			pIC50 [2]: 6.82
Nc1cc(-c2cc(F)ccc2Oc2cc(F)c(S(=O)(=O)Nc3ncns3)cc2F)ccn1 [Example 634, 4-[2-(2-aminopyridin-4-yl)-4-fluorophenoxy]-2,5-difluoro-N-1,2,4-thiadiazol-5-ylbenzenesulfonamide]		7.96	
CC(C)Cc1ccc(Oc2ccc(S(=O)(=O)Nc3nccs3)cc2F)c(-c2ccnn2C)c1 [Example 723, 3-Fluoro-4-[4-isobutyl-2-(1-methyl-1H-pyrazol-5-yl)phenoxy]-N-1,3-thiazol-2-ylbenzenesulfonamide]		7.19	
O=S(=O)(Nc1ncc(Cl)s1)c1cc(F)c(Oc2ccc(F)cc2-c2cn[nH]c2)cc1F [Example 614, N-(5-chloro-1,3-thiazol-2-yl)-2,5-difluoro-4-[4-fluoro-2-(1H-pyrazol-4-yl)phenoxy]benzenesulfonamide]		6.74	
N#Cc1cc(Oc2ccccc2-c2ccccc2)ccc1S(=O)(=O)Nc1ncns1 [Example 268, 4-(biphenyl-2-yloxy)-2-cyano-N-1,2,4-thiadiazol-5-ylbenzenesulfonamide]			pIC50 [2]: 5.51
Nc1cc(-c2cc(OC(F)(F)F)ccc2Oc2cc(F)c(S(=O)(=O)Nc3ncns3)cc2Cl)ccn1 [Example 553, 4-[2-(2-aminopyridin-4-yl)-4-(trifluoromethoxy)phenoxy]-5-chloro-2-fluoro-N-1,2,4-thiadiazol-5-ylbenzenesulfonamide]		8.77	
COC(=O)c1cccc(-c2cc(Cl)ccc2Oc2ccc(S(=O)(=O)Nc3ncns3)cc2C#N)c1 [Example 1003, methyl 5′-chloro-2′-{2-cyano-4-[(1,2,4-thiadiazol-5-ylamino)sulfonyl]phenoxy}biphenyl-3-carboxylate]			pIC50 [3]: 7.70

Second part, led by results:

IC50 [1]	pIC50 [1]	Structure (SMILES)	also measured
>1000 nM		CC(C)Oc1cc(-c2cc(F)ccc2Oc2ccc(S(=O)(=O)Nc3nccs3)cc2C#N)n(C)n1 [Example 310, 3-cyano-4-[4-fluoro-2-(3-isopropoxy-1-methyl-1H-pyrazol-5-yl)phenoxy]-N-1,3-thiazol-2-ylbenzenesulfonamide]	
	6.70	N#Cc1cc(S(=O)(=O)Nc2ncc(Cl)s2)ccc1Oc1ccc(F)cc1-c1ccc(N)nc1 [Example 587, 4-[2-(6-Aminopyridin-3-yl)-4-fluorophenoxy]-N-(5-chloro-1,3-thiazol-2-yl)-3-cyanobenzenesulfonamide]	
	5.80	Cn1nccc1-c1cc(Oc2ccc(S(=O)(=O)Nc3nccs3)cc2C#N)ccc1Cl [Example 648, 4-[4-chloro-3-(1-methyl-1H-pyrazol-5-yl)phenoxy]-3-cyano-N-1,3-thiazol-2-ylbenzenesulfonamide]	
	5.64	N#Cc1cc(S(=O)(=O)Nc2nccs2)ccc1Oc1ccc(Cl)c(-c2ccn[nH]2)c1 [Example 446, 4-[4-chloro-3-(1H-pyrazol-5-yl)phenoxy]-3-cyano-N-1,3-thiazol-2-ylbenzenesulfonamide]	
	4.92	Cn1nccc1-c1cc(Cl)ccc1Oc1ccc(S(=O)(=O)Nc2ncsc2Cl)cc1C#N [Example 413, 4-[4-chloro-2-(1-methyl-1H-pyrazol-5-yl)phenoxy]-N-(5-chloro-1,3-thiazol-4-yl)-3-cyanobenzenesulfonamide]	
	5.96	COc1cccc(-c2cc(Oc3ccc(S(=O)(=O)Nc4ncc(F)s4)cc3C#N)ccc2Cl)c1 [Example 531, 4-[(6-chloro-3′-methoxybiphenyl-3-yl)oxy]-3-cyano-N-(5-fluoro-1,3-thiazol-2-yl)benzenesulfonamide]	
	5.70	CCn1nc(C(F)(F)F)cc1-c1cccc(Oc2ccc(S(=O)(=O)Nc3nc(C)ns3)cc2C#N)c1 [Example 290, 3-cyano-4-{3-[1-ethyl-3-(trifluoromethyl)-1H-pyrazol-5-yl]phenoxy}-N-(3-methyl-1,2,4-thiadiazol-5-yl)benzenesulfonamide]	
	6.00	Cn1nccc1-c1cc(Cl)ccc1Oc1ccc(S(=O)(=O)Nc2ncc(F)cn2)cc1C#N [Example 465, 4-[4-chloro-2-(1-methyl-1H-pyrazol-5-yl)phenoxy]-3-cyano-N-(5-fluoropyrimidin-2-yl)benzenesulfonamide]	
>1000 nM		CCn1nc(C(F)(F)F)cc1-c1cccc(Oc2ccc(S(=O)(=O)Nc3ccc(F)cn3)cc2C#N)c1 [Example 368, 3-cyano-4-{3-[1-ethyl-3-(trifluoromethyl)-1H-pyrazol-5-yl]phenoxy}-N-(5-fluoropyridin-2-yl)benzenesulfonamide]	

— patent US8541588B2, “Sulfonamide derivatives” (Pfizer Limited, priority 2009, dated 2013)
